Experimental data as given in US20200038513A1, “MODULATORS OF FAK PROTEOLYSIS AND ASSOCIATED METHODS OF USE” (ARVINAS OPERATIONS, INC., priority 2018, published 2020).

Tested on: MDA-MB-231 cells
Assay: RPPA (reverse phase protein array)
Assay type: cell-based, human
Conditions: 1000nM
Description: RPPA analysis was performed by MD Anderson Cancer Center RPPA core facility.
Examination of the Molecular Signaling Events) and/or Downstream Pathways Responsible for the Migration and Invasion Effects Observed by Exemplary Compound Treatment. To pinpoint these observations to a molecular signaling event or specific downstream pathway, reverse phase protein array (RPPA) analysis was performed (Table 4).

CNC(=O)c1ccc(Nc2ncc(C(F)(F)F)c(NCc3nccnc3N(C)S(C)(=O)=O)n2)cc1 [Defactinib, defactinib, reference compound]
rel. Protein level, 4E-BP1: 115.6% | rel. Protein level, 4E-BP1_pS65: 91.8% | rel. Protein level, 14-3-3-beta: 98.4% | rel. Protein level, 14-3-3-zeta: 102.9% | rel. Protein level, 53BP1: 111.6% | rel. Protein level, A-Raf: 108.3% | rel. Protein level, ACC1: 95.9% | rel. Protein level, ACC_pS79: 102.5% | rel. Protein level, ADAR1: 111.8% | rel. Protein level, AMPK-a2_pS345: 98.1% | rel. Protein level, AMPKa: 105.6% | rel. Protein level, AMPKa_pT172: 101.3% | rel. Protein level, AR: 103.1% | rel. Protein level, ARID1A: 100.8% | rel. Protein level, ATM: 93.9% | rel. Protein level, ATM_pS1981: 99.4% | rel. Protein level, ATR_pS428: 93.7% | rel. Protein level, Akt: 99.2% | rel. Protein level, Akt_pS473: 79.3% | rel. Protein level, Akt_pT308: 97.2% | rel. Protein level, Annexin-I: 96.1% | rel. Protein level, Annexin-VII: 107.8% | rel. Protein level, Atg3: 98.1% | rel. Protein level, Atg7: 99.5% | rel. Protein level, Aurora-B: 91.9% | rel. Protein level, Axl: 76.0% | rel. Protein level, B7-H4: 102.6% | rel. Protein level, B-Raf: 104.8% | rel. Protein level, B-Raf_pS445: 108.8% | rel. Protein level, BAP1: 83.5% | rel. Protein level, BRD4: 108.7% | rel. Protein level, Bad_pS112: 103.3% | rel. Protein level, Bak: 103.1% | rel. Protein level, Bax: 106.4% | rel. Protein level, Bc1-xL: 100.4% | rel. Protein level, Bc12: 112.9% | rel. Protein level, Beclin_l: 99.2% | rel. Protein level, BiP-GRP78: 103.7% | rel. Protein level, Bid: 109.2% | rel. Protein level, Bim: 105.6% | rel. Protein level, C-Raf: 96.5% | rel. Protein level, C-Raf_pS338: 98.1% | rel. Protein level, CD4: 103.7% | rel. Protein level, CD20: 96.8% | rel. Protein level, CD29: 101.9% | rel. Protein level, CD31: 100.7% | rel. Protein level, CD44: 100.5% | rel. Protein level, CD45: 117.4% | rel. Protein level, CD49b: 105.5% | rel. Protein level, CD134: 100.5% | rel. Protein level, CDK1_pT14: 84.4% | rel. Protein level, COG3: 105.5% | rel. Protein level, Caspase-3: 108.3% | rel. Protein level, Caspase-7-cleaved-: 107.0% | rel. Protein level, Caspase-8: 97.2% | rel. Protein level, Caveolin-1: 135.0% | rel. Protein level, Chk2: 97.0% | rel. Protein level, Chk2_pT68: 106.0% | rel. Protein level, Chkl: 84.1% | rel. Protein level, Chkl_pS296: 98.2% | rel. Protein level, Claudin-7: 97.3% | rel. Protein level, Collagen-VI: 102.5% | rel. Protein level, Connexin-43: 86.5% | rel. Protein level, Cox2: 144.9% | rel. Protein level, Cox-IV: 101.8% | rel. Protein level, Creb: 103.7% | rel. Protein level, Cyclin-B1: 86.8% | rel. Protein level, Cyclin-D1: 100.5% | rel. Protein level, Cyclin-D3: 97.2% | rel. Protein level, Cyclin-E1: 101.8% | rel. Protein level, Cyclophilin-F: 85.5% | rel. Protein level, D-a-Tubulin: 98.2% | rel. Protein level, DJ1: 105.3% | rel. Protein level, DM-Histone-H3: 106.7% | rel. Protein level, DM-K9-Histone-H3: 108.9% | rel. Protein level, DUSP4: 135.6% | rel. Protein level, E2F1: 98.4% | rel. Protein level, E-Cadherin: 122.5% | rel. Protein level, EGFR: 93.7% | rel. Protein level, EGFR_pY1173: 100.8% | rel. Protein level, EMA: 102.2% | rel. Protein level, ENY2: 95.1% | rel. Protein level, ER: 99.6% | rel. Protein level, ER-a_pS118: 98.5% | rel. Protein level, ERCC1: 85.6% | rel. Protein level, ERCC5: 110.3% | rel. Protein level, Elk1_pS383: 97.3% | rel. Protein level, Ets-1: 90.6% | rel. Protein level, FAK: 116.1% | rel. Protein level, FAK_pY397: 93.5% | rel. Protein level, FASN: 98.1% | rel. Protein level, FOXM1: 90.3% | rel. Protein level, Fibronectin: 89.9% | rel. Protein level, FoxO3a: 104.9% | rel. Protein level, FoxO3a_pS318_S321: 99.0% | rel. Protein level, G6PD: 102.3% | rel. Protein level, GAPDH: 104.0% | rel. Protein level, GATA3: 91.1% | rel. Protein level, GATA-6: 99.4% | rel. Protein level, GCLM: 97.0% | rel. Protein level, GCN5L2: 94.5% | rel. Protein level, GSK-3a-b: 101.2% | rel. Protein level, GSK-3a-b_pS21_S9: 98.8% | rel. Protein level, Gab2: 94.6% | rel. Protein level, Glutamate-D1-2: 100.6% | rel. Protein level, Glutaminase: 100.6% | rel. Protein level, Granzyme-B: 102.7% | rel. Protein level, Gys: 107.0% | rel. Protein level, Gys_pS641: 106.2% | rel. Protein level, H2AX_pS140: 101.9% | rel. Protein level, HER2: 91.7% | rel. Protein level, HER2_pY1248: 101.5% | rel. Protein level, HER3: 98.5% | rel. Protein level, HER3_pY1289: 98.2% | rel. Protein level, HES1: 97.2% | rel. Protein level, HLA-DR-DP-DQ-DX: 98.9% | rel. Protein level, HSP27: 101.4% | rel. Protein level, HSP27_pS82: 114.2% | rel. Protein level, HSP70: 103.2% | rel. Protein level, Heregulin: 109.2% | rel. Protein level, Hexokinase-II: 98.0% | rel. Protein level, Hif-l-alpha: 116.1% | rel. Protein level, Histone-H3: 123.3% | rel. Protein level, IGF1R_pY1135_Y1136: 98.7% | rel. Protein level, IGFBP2: 90.9% | rel. Protein level, IGFRb: 99.7% | rel. Protein level, INPP4b: 99.6% | rel. Protein level, IR-b: 110.0% | rel. Protein level, IRF-1: 104.1% | rel. Protein level, IRS1: 96.1% | rel. Protein level, JNK2: 111.4% | rel. Protein level, JNK_pT183_Y185: 99.7% | rel. Protein level, Jagged1: 107.3% | rel. Protein level, Jak2: 104.3% | rel. Protein level, LC3A-B: 102.5% | rel. Protein level, LDHA: 121.2% | rel. Protein level, LRP6_pS1490: 109.2% | rel. Protein level, Lck: 101.9% | rel. Protein level, MAPK_pT202-Y204: 98.0% | rel. Protein level, MCT4: 119.5% | rel. Protein level, MDM2_pS166: 92.3% | rel. Protein level, MEK1: 110.2% | rel. Protein level, MEK1_p_S217-S221: 98.0% | rel. Protein level, MERIT40_pS29: 91.1% | rel. Protein level, MIF: 118.6% | rel. Protein level, MIG6: 133.9% | rel. Protein level, MMP2: 103.4% | rel. Protein level, MMP14-[EP1264Y]: 138.0% | rel. Protein level, MMP-14: 139.1% | rel. Protein level, MSH6: 99.2% | rel. Protein level, MSI2: 100.7% | rel. Protein level, Mcl-1: 101.9%
